Series [1] deals with MCF-7. Description: MTT anti-proliferative assay toward MCF-7. The note with it: Homo sapiens, MCF7, 48 h, read-out: IC50 toward MCF-7. A general note: Tetrazolium dyes change colour on reduction, which living cells bring about.
Procedure: Anti-proliferative activities were done using the MTT colorimetric assay [58]. Cell viability was assessed after 48 h, and the viability was calculated relative to the control [59]
Experimental of biological evaluations
Anti-proliferative activities were done using MTT colorimetric assay.
Both cell lines were provided with 10% fetal bovine serum (FBS, Sigma-Aldrich, MO, USA) and 1% penicillin-streptomycin (Lonza, Belgium). Cells were incubated following standard tissue culture work. Cell viability was assessed after 48 h using MTT solution (Promega, USA). Absorbance was subsequently measured (at 570 nm) using ELISA microplate reader (BIO-RAD, model iMark, Japan). The viability was calculated relative to control.
EGFR and HER2 enzyme inhibition
(§1) Measurement of potential EGFR/ HER2 inhibitory activities was performed using EGFR
(§2) following equation was used to determine the proportion of autophosphorylation inhibition by
concentrations for each compound.
Cell cycle analysis and apoptotic assay
MCF-7 cells were seeded into 6-well culture plates (3-5× 10^5 cells/well) and incubated
48 h. Subsequently, cells and medium supernatants were gathered and washed with ice-cold PBS.
The cells were then suspended in 100 µL of the annexin binding buffer solution, which was described as "25 mM CaCl 2, 1.4 M NaCl, and 0.1 M Hepes/NaOH, pH 7.4”. The cell incubation and addition of Annexin V-FITC solution, and propidium iodide (PI) were done according to the reported procedure. Next, the Cytoflex FACS equipment was used to obtain the stained cells. The program CytExpert was used to analyze the data.
The subject of series [2] is MCF-7. Kind of series: Cell cycle analysis in MCF-7. It counts as cell-based. The note with it: for DNA Content %G0-G1 / DNA Content %G2/M / DNA Content %S: MCF-7, compound at its IC50, 48 h.
The target of the next series is EGFR Kinase (Homo sapiens, UniProt P00533). Description: EGFR kinase inhibitory assay (BPS Bioscience kit).
Chain of EGFR Kinase (P00533 25-1210): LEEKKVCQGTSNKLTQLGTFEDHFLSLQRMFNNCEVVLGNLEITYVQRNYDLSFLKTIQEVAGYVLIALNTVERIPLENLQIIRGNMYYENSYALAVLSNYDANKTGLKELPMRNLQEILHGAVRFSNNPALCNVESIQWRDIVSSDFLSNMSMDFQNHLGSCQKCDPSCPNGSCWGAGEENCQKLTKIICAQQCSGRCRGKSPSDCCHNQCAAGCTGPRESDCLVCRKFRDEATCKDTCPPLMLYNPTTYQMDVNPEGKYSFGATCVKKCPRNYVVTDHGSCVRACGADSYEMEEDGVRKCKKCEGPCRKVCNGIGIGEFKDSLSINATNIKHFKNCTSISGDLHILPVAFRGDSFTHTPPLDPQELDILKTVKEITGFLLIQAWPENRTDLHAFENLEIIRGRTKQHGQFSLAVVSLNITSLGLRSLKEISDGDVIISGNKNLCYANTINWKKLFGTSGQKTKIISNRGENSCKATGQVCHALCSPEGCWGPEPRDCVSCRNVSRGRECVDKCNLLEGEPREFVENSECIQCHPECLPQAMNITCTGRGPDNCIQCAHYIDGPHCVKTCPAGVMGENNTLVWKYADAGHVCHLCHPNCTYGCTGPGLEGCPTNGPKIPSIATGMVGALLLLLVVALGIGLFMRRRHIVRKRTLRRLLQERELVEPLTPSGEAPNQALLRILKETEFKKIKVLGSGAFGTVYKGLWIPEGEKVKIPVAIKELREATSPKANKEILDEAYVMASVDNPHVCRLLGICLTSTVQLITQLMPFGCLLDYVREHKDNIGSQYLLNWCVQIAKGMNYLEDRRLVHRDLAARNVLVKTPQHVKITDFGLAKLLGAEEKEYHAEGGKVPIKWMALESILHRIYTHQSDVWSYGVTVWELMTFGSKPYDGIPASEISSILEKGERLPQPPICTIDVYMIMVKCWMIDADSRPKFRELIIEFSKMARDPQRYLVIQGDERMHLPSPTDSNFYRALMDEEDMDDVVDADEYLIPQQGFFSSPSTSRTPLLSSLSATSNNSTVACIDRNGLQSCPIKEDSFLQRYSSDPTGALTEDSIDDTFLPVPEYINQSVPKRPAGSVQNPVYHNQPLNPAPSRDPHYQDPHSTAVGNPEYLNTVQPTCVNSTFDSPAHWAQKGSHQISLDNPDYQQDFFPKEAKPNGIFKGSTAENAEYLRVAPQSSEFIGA
A further series concerns the target HER2 Kinase (Homo sapiens, UniProt P04626). Description: HER2 kinase inhibitory assay (BPS Bioscience kit).
A further series concerns MCF-7 cells. Description: Annexin V/PI apoptosis analysis in MCF-7. It counts as cell-based. The note with it: MCF-7, compound at its IC50, 48 h.
Another series has as its system MCF-10A. Description: MTT cytotoxicity assay toward MCF-10A. The series is classed as cell-based. The note with it: Homo sapiens, 48 h.
Series [3] deals with MCF-7. The note with it: cited from earlier work.
A further series deals with HER2. The note with it: cited from earlier work.
Another series deals with EGFR. The note with it: cited from earlier work.
The test system of another series is A549. Further details: method as in PMID 21802290. The note with it: cited from earlier work.
The test system of the next series is T-47D cell line. Further details: method as in PMID 37049966. The note with it: cited from earlier work.

Data on 25 compounds can be found in PMC10647861, “New Thiazolyl-Pyrazoline Derivatives as Potential Dual EGFR/HER2 Inhibitors: Design, Synthesis, Anticancer Activity Evaluation and In Silico Study” (Molecules, 2023).

Like-named read-outs stand apart in the source and are kept apart here. Some results are limits rather than exact numbers.

Chain of HER2 Kinase (P04626 23-1255): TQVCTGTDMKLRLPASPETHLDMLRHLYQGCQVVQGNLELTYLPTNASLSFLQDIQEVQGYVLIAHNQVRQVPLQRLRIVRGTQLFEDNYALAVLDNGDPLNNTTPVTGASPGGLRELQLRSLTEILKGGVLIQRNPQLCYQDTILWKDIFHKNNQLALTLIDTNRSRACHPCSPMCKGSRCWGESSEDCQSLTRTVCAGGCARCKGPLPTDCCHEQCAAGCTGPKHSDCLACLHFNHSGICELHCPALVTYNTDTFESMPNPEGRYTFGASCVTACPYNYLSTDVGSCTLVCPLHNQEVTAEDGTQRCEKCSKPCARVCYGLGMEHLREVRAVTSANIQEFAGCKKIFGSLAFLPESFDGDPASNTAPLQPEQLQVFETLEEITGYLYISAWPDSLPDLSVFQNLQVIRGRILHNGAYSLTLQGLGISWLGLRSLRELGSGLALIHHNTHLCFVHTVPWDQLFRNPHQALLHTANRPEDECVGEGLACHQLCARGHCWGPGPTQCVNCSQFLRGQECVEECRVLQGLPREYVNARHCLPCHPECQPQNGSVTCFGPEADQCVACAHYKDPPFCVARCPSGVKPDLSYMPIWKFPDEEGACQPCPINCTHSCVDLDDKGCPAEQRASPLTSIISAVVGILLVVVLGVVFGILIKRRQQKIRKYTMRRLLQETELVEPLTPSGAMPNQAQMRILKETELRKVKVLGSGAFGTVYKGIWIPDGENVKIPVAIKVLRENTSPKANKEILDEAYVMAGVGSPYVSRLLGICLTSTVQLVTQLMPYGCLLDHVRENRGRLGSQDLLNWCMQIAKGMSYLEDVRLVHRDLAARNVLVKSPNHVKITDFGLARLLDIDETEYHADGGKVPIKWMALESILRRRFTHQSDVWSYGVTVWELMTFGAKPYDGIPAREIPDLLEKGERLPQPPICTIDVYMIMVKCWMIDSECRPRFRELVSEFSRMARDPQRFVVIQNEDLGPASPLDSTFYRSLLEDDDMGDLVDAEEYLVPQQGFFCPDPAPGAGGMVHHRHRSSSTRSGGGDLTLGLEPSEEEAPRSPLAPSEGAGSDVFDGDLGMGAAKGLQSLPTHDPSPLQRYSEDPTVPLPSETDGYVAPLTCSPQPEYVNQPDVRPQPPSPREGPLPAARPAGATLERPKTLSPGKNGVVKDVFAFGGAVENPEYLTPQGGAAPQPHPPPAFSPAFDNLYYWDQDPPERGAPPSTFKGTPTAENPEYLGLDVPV
Procedure for EGFR Kinase: Experimental of biological evaluations
EGFR and HER2 enzyme inhibition
as §1, §2
concentrations for each compound.
Procedure for HER2 Kinase: Experimental of biological evaluations
EGFR and HER2 enzyme inhibition
as §1, §2
concentrations for each compound.

One may read the IC50 as the midpoint of a concentration-inhibition curve. `COc1ccc(C2CC(c3ccc(OC)c(OC)c3)=NN2C2=NC(=O)C(=NNc3ccc(Cl)cc3)S2)cc1` (centres unmarked) [Compound 5a, 5-(2-(4-Chlorophenyl)hydrazineylidene)-2-(3-(3,4-dimethoxyphenyl)-5-(4-methoxyphenyl)-4,5-dihydro-1H-pyrazol-1-yl)thiazol-4(5H)-one]: the IC50 in the series on MCF-7 [1] amounted to 30.24 ± 0.24 µM.

As to `COc1ccc(C2CC(c3ccc(OC)c(OC)c3)=NN2C2=NC(=O)CS2)cc1` (centres unmarked) [Compound 6a, 2-(3-(3,4-Dimethoxyphenyl)-5-(4-methoxyphenyl)-4,5-dihydro-1H-pyrazol-1-yl)thiazol-4(5H)-one], the IC50 in the series on MCF-7 [1] amounted to 4.08 ± 0.08 µM. Moreover, in the series with MCF-7 [2], the “DNA Content %G0-G1” value stood at 69.82%, the “DNA Content %G2/M” value amounted to 8.12% and the “DNA Content %S” value is given as 22.06%. This compound displayed an IC50 against EGFR Kinase of 24 ± 5 nM. Also, the IC50 on HER2 Kinase was 47 ± 8 nM. Besides, in the series on MCF-7 cells, the “Apoptosis Early” value is 28.17%, the “Apoptosis Late” value stood at 17.98% and the Necrosis turned out to be 4.88%. Besides, the IC50 with MCF-10A was ≥ 50 µM.

Consider `Brc1ccc(C2=NN(c3nc(-c4ccc(Br)cc4)cs3)C(c3ccc4c(c3)OCO4)C2)cc1` (centres unmarked) [III], for which the IC50 in the series with MCF-7 [3] was 90 nM; in the series with HER2, 180 nM.

For `COc1ccc(C2CC(c3ccc(OC)c(OC)c3)=NN2c2nc(-c3ccccc3)cs2)cc1` (centres unmarked) [IV], the IC50 in the series with MCF-7 [3] is 7210 nM; in the series with EGFR, 9 nM; in the series on HER2, 13 nM.

Usually melting point stands for the temperature, or range, at which the solid turns liquid. Consider `COc1ccc(C2=NN(C3=NC(=O)C(=C4C(=O)Nc5ccccc54)S3)C(c3ccc(Cl)cc3)C2)cc1OC` (centres unmarked) [Compound 8b, 2-(5-(4-Chlorophenyl)-3-(3,4-dimethoxyphenyl)-4,5-dihydro-1H-pyrazol-1-yl)-5-(2-oxoindolin-3-ylidene)thiazol-4(5H)-one], for which the melting point is > 300 °C. The IC50 in the series on MCF-7 [1] worked out at 19.5 ± 0.27 µM.

`COc1ccc(C2=NN(c3nc(C)c(N=Nc4ccc(S(N)(=O)=O)cc4)s3)C(c3ccc(Cl)cc3)C2)cc1OC` (centres unmarked) [Compound 4d, 4-((2-(5-(4-Chlorophenyl)-3-(3,4-dimethoxyphenyl)-4,5-dihydro-1H-pyrazol-1-yl)-4-methylthiazol-5-yl)diazenyl)benzenesulfonamide] registered a melting point of 208 to 210 °C. For the same compound, the IC50 with MCF-7 [1] turned out to be 17.1 ± 0.21 µM.

The compound `COc1ccc(C2CC(c3ccc(OC)c(OC)c3)=NN2c2nc(C)c(N=Nc3ccc(Cl)cc3)s2)cc1` (centres unmarked) [Compound 4a, 5-((4-Chlorophenyl)diazenyl)-2-(3-(3,4-dimethoxyphenyl)-5-(4-methoxyphenyl)-4,5-dihydro-1H-pyrazol-1-yl)-4-methylthiazole] came in with a melting point of 192 to 194 °C. Moreover, the IC50 in the series on MCF-7 [1] was found to be 18.6 ± 0.19 µM.

On to `Cc1ccc(C2=NN(c3nc(-c4ccc(Cl)cc4)cs3)C(c3ccc(F)cc3)C2)cc1C` (centres unmarked) [I], for which the IC50 with MCF-7 [3] is 70 nM; with EGFR, 60 nM.

`CS(=O)(=O)CCNCc1ccc(-c2ccc3ncnc(Nc4ccc(OCc5cccc(F)c5)c(Cl)c4)c3c2)o1` [Lapatinib, reference compound]: the figures for the IC50 in the series with MCF-7 [1] and with MCF-10A were 5.88 ± 0.04 µM and ≥ 50 µM, respectively.

`COc1ccc(C2=NN(C3=NC(=O)C(=NNc4ccc(Cl)cc4)S3)C(c3ccc(Cl)cc3)C2)cc1OC` (centres unmarked) [Compound 5c, 2-(5-(4-Chlorophenyl)-3-(3,4-dimethoxyphenyl)-4,5-dihydro-1H-pyrazol-1-yl)-5-(2-(4-chlorophenyl)hydrazineylidene)thiazol-4(5H)-one] displayed a melting point of 278 to 280 °C. Further, in the series on MCF-7 [1], the IC50 was 28.03 ± 0.25 µM.

On to `COc1ccc(C2CC(c3ccc(Cl)cc3Cl)=NN2c2nc(C)c(C(=O)Nc3ccccc3)s2)cc1OC` (centres unmarked) [II], for which the IC50 is 2920 nM with A549 and 32 nM with EGFR.

For the compound `COc1ccc(C2CC(c3ccc(OC)c(OC)c3)=NN2C2=NC(=O)C(=Cc3ccccc3)S2)cc1` (centres unmarked) [Compound 7a, 5-Benzylidene-2-(3-(3,4-dimethoxyphenyl)-5-(4-methoxyphenyl)-4,5-dihydro-1H-pyrazol-1-yl)thiazol-4(5H)-one], the melting point fell in the range of 294 to 296 °C. Besides, the IC50 in the series with MCF-7 [1] stood at 17.79 ± 0.14 µM.

Compound `COc1ccc(C2CC(c3ccc(OC)c(OC)c3)=NN2C2=NC(=O)C(=NNc3ccc(S(N)(=O)=O)cc3)S2)cc1` (centres unmarked) [Compound 5b, 4-(2-(2-(3-(3,4-Dimethoxyphenyl)-5-(4-methoxyphenyl)-4,5-dihydro-1H-pyrazol-1-yl)-4-oxothiazol-5(4H)-ylidene)hydrazineyl)benzenesulfonamide] displayed a melting point of 249 to 251 °C. Further, in the series with MCF-7 [1], the IC50 is 27.31 ± 0.26 µM.

As to `COc1ccc2nc(Cl)c(C3CC(c4ccc(C)cc4)=NN3c3nc(-c4ccc(F)cc4)cs3)cc2c1` (centres unmarked) [V], the IC50 in the series on MCF-7 [3] was 227 nM; with EGFR it was 31 nM.

As to `COc1ccc(C2CC(c3ccc(OC)c(OC)c3)=NN2c2nc(-c3cc4ccccc4oc3=O)cs2)cc1` (centres unmarked) [Compound 10a, 3-(2-(3-(3,4-Dimethoxyphenyl)-5-(4-methoxyphenyl)-4,5-dihydro-1H-pyrazol-1-yl)thiazol-4-yl)-2H-chromen-2-one], the concentration for half-maximal inhibition (IC50) with MCF-7 [1] was 3.37 ± 0.13 µM. In the series on MCF-7 [2], the “DNA Content %G0-G1” value came out at 66.41%, the “DNA Content %G2/M” value is 4.04% and the “DNA Content %S” value is recorded as 29.55%. Besides, in the series on MCF-7 [2] (MCF-7, compound at its IC50, control 26.33%), the “cell accumulation at S phase relative to control” value stood at 1.12 folds. Also, the “cell accumulation at G0-G1 relative to control” value in the series on MCF-7 [2] (MCF-7, compound at its IC50, control 62.59%) amounted to 1.06 folds. This compound also displayed an IC50 at EGFR Kinase of 5 ± 2 nM. Moreover, on HER2 Kinase, the half-maximal inhibitory concentration (IC50) amounted to 22 ± 5 nM. Further, in the series on MCF-7 cells, the “Apoptosis Early” value worked out at 19.22%, the “Apoptosis Late” value was 15.91% and the Necrosis is 7.53%. The IC50 with MCF-10A was ≥ 50 µM.

With `COc1ccc(C2=NN(C3=NC(=O)C(=NNc4ccc(S(N)(=O)=O)cc4)S3)C(c3ccc(Cl)cc3)C2)cc1OC` (centres unmarked) [Compound 5d, 4-(2-(2-(5-(4-Chlorophenyl)-3-(3,4-dimethoxyphenyl)-4,5-dihydro-1H-pyrazol-1-yl)-4-oxothiazol-5(4H)-ylidene)hydrazineyl)benzenesulfonamide], the melting point lay within 292 to 294 °C. Besides, the IC50 in the series on MCF-7 [1] was 25.7 ± 0.12 µM.

`COc1ccc(C2=NN(c3nc(-c4cc5ccccc5oc4=O)cs3)C(c3ccc(Cl)cc3)C2)cc1OC` (centres unmarked) [Compound 10b, 3-(2-(5-(4-Chlorophenyl)-3-(3,4-dimethoxyphenyl)-4,5-dihydro-1H-pyrazol-1-yl)thiazol-4-yl)-2H-chromen-2-one]: the melting point lay in the range of 238 to 240 °C. For the same compound, the IC50 in the series with MCF-7 [1] was 3.54 ± 0.07 µM. The compound also returned an IC50 against EGFR Kinase of 29 ± 4 nM. This compound showed an IC50 on HER2 Kinase of 65 ± 7 nM. In addition, half-maximal inhibition in the series with MCF-10A (IC50) required 27.1 ± 1.98 µM.

Consider `COc1ccc(C2=NN(c3nc(C)c(N=Nc4ccc(Cl)cc4)s3)C(c3ccc(Cl)cc3)C2)cc1OC` (centres unmarked) [Compound 4c, 2-(5-(4-Chlorophenyl)-3-(3,4-dimethoxyphenyl)-4,5-dihydro-1H-pyrazol-1-yl)-5-((4-chlorophenyl)diazenyl)-4-methylthiazole], for which the melting point fell in the range of 210 to 212 °C. Also, in the series with MCF-7 [1], the IC50 came to 18.7 ± 0.22 µM.

`COc1ccc(C2=NN(C3=NC(=O)CS3)C(c3ccc(Cl)cc3)C2)cc1OC` (centres unmarked) [Compound 6b, 2-(5-(4-Chlorophenyl)-3-(3,4-dimethoxyphenyl)-4,5-dihydro-1H-pyrazol-1-yl)thiazol-4(5H)-one] had a melting point of 208 to 210 °C. Further, in the series with MCF-7 [1], the IC50 turned out to be 5.64 ± 0.11 µM. Inhibition on EGFR Kinase was half-maximal at 26 ± 2 nM (IC50). The same compound returned an IC50 against HER2 Kinase of 81 ± 6 nM. Also, 32.8 ± 1.27 µM corresponded to half-maximal inhibition in the series with MCF-10A (IC50).

As to `COc1ccc(C2CC(c3ccc(OC)c(OC)c3)=NN2c2nc(C)c(N=Nc3ccc(S(N)(=O)=O)cc3)s2)cc1` (centres unmarked) [Compound 4b, 4-((2-(3-(3,4-Dimethoxyphenyl)-5-(4-methoxyphenyl)-4,5-dihydro-1H-pyrazol-1-yl)-4-methylthiazol-5-yl)diazenyl)benzenesulfonamide], the melting point was in the range of 200 to 202 °C. For the same compound, in the series with MCF-7 [1], the IC50 was 17.12 ± 0.15 µM.

The compound `COc1ccc(C=C2SC(N3N=C(c4ccc(OC)c(OC)c4)CC3c3ccc(OC)cc3)=NC2=O)cc1` (centres unmarked) [Compound 7b, 2-(3-(3,4-Dimethoxyphenyl)-5-(4-methoxyphenyl)-4,5-dihydro-1H-pyrazol-1-yl)-5-(4-methoxybenzylidene)thiazol-4(5H)-one] yielded a melting point of 245 to 247 °C. Besides, the IC50 in the series on MCF-7 [1] stood at 20 ± 0.22 µM.

As for `COc1ccc(C2=NN(C3=NC(=O)C(=Cc4ccccc4)S3)C(c3ccc(Cl)cc3)C2)cc1OC` (centres unmarked) [Compound 7c, 5-Benzylidene-2-(5-(4-chlorophenyl)-3-(3,4-dimethoxyphenyl)-4,5-dihydro-1H-pyrazol-1-yl)thiazol-4(5H)-one], the melting point was 283 to 285 °C. Moreover, the IC50 in the series on MCF-7 [1] was determined as 21.2 ± 0.24 µM.

Regarding `COc1ccc(C2CC(c3ccc(OC)c(OC)c3)=NN2C2=NC(=O)C(=C3C(=O)Nc4ccccc43)S2)cc1` (centres unmarked) [Compound 8a, 2-(3-(3,4-Dimethoxyphenyl)-5-(4-methoxyphenyl)-4,5-dihydro-1H-pyrazol-1-yl)-5-(2-oxoindolin-3-ylidene)thiazol-4(5H)-one], the melting point was > 300 °C. The IC50 in the series on MCF-7 [1] was determined as 21.33 ± 0.21 µM.

For `Cc1ccc(C2=NN(C3=NC(=O)/C(=C/c4ccc(O)cc4)S3)C(c3ccc(F)cc3)C2)cc1` (centres unmarked) [VI], the IC50 with T-47D cell line is 1150 nM; in the series on EGFR it was 83 nM.

The compound `COc1ccc(C=C2SC(N3N=C(c4ccc(OC)c(OC)c4)CC3c3ccc(Cl)cc3)=NC2=O)cc1` (centres unmarked) [Compound 7d, 2-(5-(4-Chlorophenyl)-3-(3,4-dimethoxyphenyl)-4,5-dihydro-1H-pyrazol-1-yl)-5-(4-methoxybenzylidene)thiazol-4(5H)-one] returned a melting point of 250 to 252 °C. Moreover, the IC50 in the series with MCF-7 [1] was 20.17 ± 0.19 µM.
